{
  "source": "patent US20240342148A1",
  "about": "“METHODS OF TREATING FACIOSCAPULOHUMERAL MUSCULAR DYSTROPHY WITH LOSMAPIMOD” (Fulcrum Therapeutics, Inc., priority 2021, published 2024)",
  "key": {"subjects with FSHD [1]": {"tested_on": "subjects with FSHD", "test": "Timed Up and Go (TUG)", "format": "in vivo, human", "conditions": "nonsignificant", "experimental": "(§1) TUG assessments were performed at all visits, except for Wk16. The TUG test is a simple test that is used to assess a subject's mobility and requires both static and dynamic balance. TUG is a validated instrument that measures the time that a person takes to rise from a chair, walk 3 meters, turn around, walk back to the chair, and sit down. Subjects used their regular footwear, and their customary walking aid (no walkers allowed). Patients were also timed in a modified test (FSHD TUG), where they started from a supine position, then sat up, completed the TUG, and lay down again."}, "subjects with FSHD [2]": {"tested_on": "subjects with FSHD", "test": "Reachable workspace (RWS) relative surface area, RCT", "format": "in vivo, human", "experimental": "Continuous secondary and exploratory efficacy endpoints with 2 or more postbaseline follow-ups were analyzed using a mixed-effects model for repeated measures (MMRM), with change from baseline as the dependent variable, and treatment group, visit, treatment group-by-visit interaction, and FSHD repeat number category as fixed effects, and baseline value as a covariate. An unstructured covariance matrix was used to model the correlations among repeated measurements within each subject. The Kenward-Roger approximation was used to estimate denominator degrees of freedom. The RWS RSA score was also analyzed using a linear mixed-effects model, with treatment group as a fixed effect, and intercept, time and treatment group-by-time interaction as random effects, and with adjustment for FSHD repeat number category and region (USA, Canada, and EU). An unstructured covariance matrix was used. The RWS was performed at all visits, except for Week 16. It uses a single, 3D sensor-based system (Microsoft […]) that can unobtrusively detect subjects' RWS and reflects individual global upper extremity (UE) function, including shoulder and proximal arm. RWS has high reliability, repeatability, face validity, feasibility, sensitivity to change, and promise as a clinical outcome assessment (COA) for FSHD and other neuromuscular disorders. During the evaluation, patients were seated in front of the Microsoft […] sensor and underwent a standardized UE movement protocol while looking at a TV monitor. The evaluation was performed with and without 500 g weights two times per visit. All sites were provided and trained with the same standardized software and hardware by the sponsor. A central reader was responsible for training, quality control, data analysis, and standardization of the RWS across all sites in the study."}, "subjects with FSHD [3]": {"tested_on": "subjects with FSHD", "test": "Hand-held dynamometry, maximum voluntary isometric contraction (MVICT)", "format": "in vivo, human", "experimental": "Quantitative isometric dynamometry strength assessments were performed at all visits, except for Week 16. The MicroFET2 hand-held dynamometer was used to measure strength in the bilateral shoulders, elbow flexors and extensors, and ankle dorsiflexors. The Jamar Plus Digital Hand Dynamometer was used to measure bilateral grip strengths. Standard physical therapy techniques were used. Assessment of maximum voluntary isometric contraction (MVICT) was conducted with a hand-held dynamometer."}, "subjects with FSHD [4]": {"tested_on": "subjects with FSHD", "test": "FSHD-TUG", "parameters": "species or system human", "conditions": "in vivo", "experimental": "as §1"}, "subjects with FSHD [5]": {"tested_on": "subjects with FSHD", "test": "Motor Function Measure Domain 1 (MFM)", "parameters": "species or system human", "conditions": "in vivo", "experimental": "MFM domain 1 assessments were performed at all visits, except for those on Wk4 and Wk16. The MFM scale assesses the severity of motor deficit. Domain 1 of the MFM provides an assessment of functional impairment for standing and transfers."}, "subjects with FSHD [6]": {"tested_on": "subjects with FSHD", "test": "WB-MSK MRI composite scores (MFI, MFF, LMV)", "format": "in vivo, human", "source_text": "The images were acquired in five different sections. The rotator cuff was imaged using a neck coil, torso and legs using anterior surface coils and integrated table coils, and the upper extremities using a surface and table coils, after the patient was repositioned such that the extremity was in the center of the MRI scanner. T1-weighted Dixon-images of 18 muscles bilaterally, 36 total, were acquired and water and fat images were reconstructed using the scanner built-in phase-sensitive reconstruction (Siemens: Dixon-Vibe; Philips: mDixon). Three different measures were calculated for each muscle. The muscle fat fraction (MFF) is the total fat fraction inside the muscle fascia. The muscle fat infiltration (MFI) represents the diffuse fat infiltration in the muscle tissue and is defined as the fat fraction of the muscle voxels that contain <50% fat. Therefore, MFI measures the MFF for muscle tissue that is not end-stage. The lean muscle volume (LMV) represents the total amount of functional muscle tissue and is measured by removing all fat within the muscle volume. Each muscle was categorized based on these measures and supported by prior literature as normal appearing (Category A, MFI<0.10; MFF<0.50), intermediate (Category B, MFI≥0.10; MFF<0.50), and late-stage (Category C, MFF≥0.50). Two composite scores were used to assess the treatment efficacy and correlation with relevant clinical outcome assessments. The treatment efficacy composite score includes only those muscles identified as normal appearing or at high risk for progression (Category A or B muscles) at baseline that were measurable at both observation timepoints, having no signal quality issues. The regional composite scores for correlations are composed of all muscles that were involved in the specific functional assessment of interest regardless of their categorization (FIG. 2). The scores were derived by scientists at the MRI Service Provider (AMRA Medical Inc.) in a blinded fashion, with no access to treatment assignment information. Measurements for muscles with major quality issues, (i.e., muscles with missing values), were imputed. Late-stage muscles were not included in the analysis as these contain high fat fraction which makes them challenging to quantify accurately, and likely are already not functional. A mixed-effects model for repeated measures (MMRM) was used to analyze the change from baseline in each composite MRI score (MFFtotal, LMVtotal, and MFItotal), with repeat number category, treatment group, visit, and treatment-by-visit interactions as fixed effects and baseline value of the parameter as a covariate. […]"}, "subjects with FSHD [7]": {"tested_on": "subjects with FSHD", "test": "FSHD health index (FSHD-HI)", "parameters": "species or system human", "conditions": "in vivo", "experimental": "The FSHD health index questionnaire was administered at all visits except for Wk16. This is a FSHD-specific patient-reported measure of disease burden on activities of daily living, quality of life, and symptom prevalence and severity. It consists of a questionnaire with 116 items developed from qualitative interviews of patients followed by a national cross-sectional validation study. The measure consists of 14 subscales that measure a patient's perception of their ambulation and mobility, hand function, shoulder and arm function, emotional health, back/chest/abdomen strength, fatigue, pain, eating function, ability to do activities, communication ability, satisfaction in social situations, performance in social situations, body image and cognition. Scoring was performed centrally by the developer."}},
  "data": [
    {"compound": "Cc1c(F)cc(C(=O)NC2CC2)cc1-c1ccc(C(=O)NCC(C)(C)C)cn1", "note": "[losmapimod, 6-(5-cyclopropylcarbamoyl-3-fluoro-2-methyl-phenyl)-N-(2,2-dimethylpropyl-)-nicotinamide]", "values": [
      {"measurement": "Progression in TUG time", "setting": "subjects with FSHD [1]", "value": 0.16, "unit": "s"},
      {"measurement": "TUG time difference vs placebo", "setting": "subjects with FSHD [1]", "value": 0.58, "unit": "s"},
      {"measurement": "RSA change, dominant arm", "setting": "subjects with FSHD [2]; 0-1.25 scale", "value": 0.019},
      {"measurement": "RSA change, non-dominant arm", "setting": "subjects with FSHD [2]; 0-1.25 scale", "value": 0.021},
      {"measurement": "RSA difference vs placebo, non-dominant arm", "setting": "subjects with FSHD [2]; 0-1.25 scale, 95% CI 0.0007, 0.09, p<0.05", "value": 0.045},
      {"measurement": "RSA difference vs placebo, dominant arm", "setting": "subjects with FSHD [2]; 0-1.25 scale, 95% CI 0.017, 0.118, p=0.01", "value": 0.067},
      {"measurement": "Annualized rate of change in total RSA, non-dominant, annual percent change", "setting": "subjects with FSHD [2]; weighted assessment, p=0.01", "value": 4.88, "unit": "%"},
      {"measurement": "Annualized rate of change in total RSA, dominant, annual percent change", "setting": "subjects with FSHD [2]; weighted assessment, p=0.07", "value": 0.28, "unit": "%"},
      {"measurement": "MVICT strength change, ankle dorsiflexors, left ankle", "setting": "subjects with FSHD [3]; Wk48, post-hoc", "value": 27.17, "unit": "%"},
      {"measurement": "MVICT strength change, ankle dorsiflexors, right ankle", "setting": "subjects with FSHD [3]; Wk48, post-hoc", "value": 12.72, "unit": "%"},
      {"measurement": "MVICT strength change, shoulder abductors, non-dominant shoulder", "setting": "subjects with FSHD [3]; Wk48, post-hoc", "value": 17.85, "unit": "%"},
      {"measurement": "MVICT strength change, shoulder abductors, dominant shoulder", "setting": "subjects with FSHD [3]; Wk48, post-hoc, ns", "value": "−3.79", "unit": "%"},
      {"measurement": "MVICT difference vs placebo, non-dominant shoulder", "setting": "subjects with FSHD [3]; Wk48, post-hoc, p<0.01", "value": 34.89},
      {"measurement": "MVICT difference vs placebo, right ankle", "setting": "subjects with FSHD [3]; Wk48, post-hoc, p<0.05", "value": 38.39},
      {"measurement": "MVICT difference vs placebo, left ankle", "setting": "subjects with FSHD [3]; Wk48, post-hoc, p=0.11", "value": 37.37},
      {"measurement": "Average or MVICT in other muscle groups (bilateral hand grip, elbow flexors or extensors)", "setting": "subjects with FSHD [3]; vs placebo", "value": "No difference"},
      {"measurement": "FSHD-TUG vs placebo", "setting": "subjects with FSHD [4]", "value": "no difference"},
      {"measurement": "MFM total score vs placebo", "setting": "subjects with FSHD [5]", "value": "no difference"},
      {"measurement": "MFI or MFF in normal appearing muscles at baseline (A muscles), post-hoc", "setting": "subjects with FSHD [6]; A muscles, compared to placebo", "value": "little or no accumulation of fat"},
      {"measurement": "LMV vs placebo", "setting": "subjects with FSHD [6]; B muscles", "value": "no difference"},
      {"measurement": "MFF fat replacement vs placebo", "setting": "subjects with FSHD [6]; B muscles", "value": "nonsignificant reduction"},
      {"measurement": "MFI efficacy composite vs placebo", "setting": "subjects with FSHD [6]; muscles at high risk of progression (B muscles), p=0.01", "value": "significantly less fat infiltration"},
      {"measurement": "FSHD-HI vs placebo", "setting": "subjects with FSHD [7]", "value": "no difference"}
    ]}
  ]
}
